Source: US10214492B2, “Heterocyclic inhibitors of MCT4” (Vettore, LLC, priority 2016, dated 2019)

Tests used:
MCT1 = MCT1 (Homo sapiens (Human), UniProt P53985); assay: Assay 4: MCT1-mediated lactate transport in BT20 breast cancer cells; assay type: cell-based; settings: Table 27
Protocol: (§1) 10 μL of a 30 mM DMSO stock of BCECF-AM ester (Life Technologies) is added and the cells are incubated at 37° C. for 5 min. The cells are pelleted (300 g, 5 min), washed once with 1 mL Tyrode's Solution, pH 7.4, re-pelleted (300 g, 5 min), and resuspended in 1 mL Tyrode's Solution, pH 7.4.
Assay 4: MCT1-Mediated Lactate Transport in BT20 Breast Cancer Cells.
Preparation of BCECF loaded cells are as described for Assay 1. Lactate transport assay is as described for Assay 1, except 10 mM L-lactate (rather than 50 mM) is added.

MCT4 = MCT4 (Homo sapiens (Human), UniProt O15427); assay: Assay 3: MCT4-mediated lactate transport in MDA-MB-231 breast cancer cells; assay type: cell-based; settings: MDA-MB-231 cells; lactate transport
MCT4, sequence (O15427 whole entry, looked up): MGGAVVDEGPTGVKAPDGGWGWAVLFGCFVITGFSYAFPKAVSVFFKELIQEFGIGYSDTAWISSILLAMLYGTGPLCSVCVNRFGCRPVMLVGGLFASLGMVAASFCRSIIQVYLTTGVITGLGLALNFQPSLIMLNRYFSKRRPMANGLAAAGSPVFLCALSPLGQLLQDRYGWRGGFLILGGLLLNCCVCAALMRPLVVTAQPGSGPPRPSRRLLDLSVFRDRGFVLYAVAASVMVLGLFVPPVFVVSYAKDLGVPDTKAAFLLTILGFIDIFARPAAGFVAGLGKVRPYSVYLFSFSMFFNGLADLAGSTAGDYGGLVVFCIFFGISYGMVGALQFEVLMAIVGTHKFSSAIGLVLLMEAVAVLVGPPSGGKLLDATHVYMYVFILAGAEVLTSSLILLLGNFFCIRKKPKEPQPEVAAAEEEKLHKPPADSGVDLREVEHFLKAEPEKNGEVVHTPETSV
MCT4, sequence (P35613 whole entry partner, looked up): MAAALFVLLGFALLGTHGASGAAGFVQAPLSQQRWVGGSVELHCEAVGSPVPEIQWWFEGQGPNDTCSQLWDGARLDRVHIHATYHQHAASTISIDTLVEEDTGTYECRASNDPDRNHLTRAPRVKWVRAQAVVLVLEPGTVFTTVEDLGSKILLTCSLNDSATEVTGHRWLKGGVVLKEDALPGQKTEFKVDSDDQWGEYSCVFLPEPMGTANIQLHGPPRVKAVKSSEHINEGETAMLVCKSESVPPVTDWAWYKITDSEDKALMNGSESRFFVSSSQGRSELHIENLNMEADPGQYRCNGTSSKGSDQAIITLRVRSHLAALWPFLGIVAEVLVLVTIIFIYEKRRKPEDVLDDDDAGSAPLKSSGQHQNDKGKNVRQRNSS
Protocol: as §1
MCT4 activity may be assessed by monitoring the intracellular pH change that accompanies lactate/proton symport, using the pH-sensitive fluorescent dye 2′,7′-bis-(carboxyethyl)-5(6)-carboxyfluorescein (BCECF), in a manner similar to that previously reported for MCT1 and MCT4. The following is an exemplary procedure for assaying MCT4 activity of the compounds of Formula (I).

MCT1, sequence (P53985 whole entry): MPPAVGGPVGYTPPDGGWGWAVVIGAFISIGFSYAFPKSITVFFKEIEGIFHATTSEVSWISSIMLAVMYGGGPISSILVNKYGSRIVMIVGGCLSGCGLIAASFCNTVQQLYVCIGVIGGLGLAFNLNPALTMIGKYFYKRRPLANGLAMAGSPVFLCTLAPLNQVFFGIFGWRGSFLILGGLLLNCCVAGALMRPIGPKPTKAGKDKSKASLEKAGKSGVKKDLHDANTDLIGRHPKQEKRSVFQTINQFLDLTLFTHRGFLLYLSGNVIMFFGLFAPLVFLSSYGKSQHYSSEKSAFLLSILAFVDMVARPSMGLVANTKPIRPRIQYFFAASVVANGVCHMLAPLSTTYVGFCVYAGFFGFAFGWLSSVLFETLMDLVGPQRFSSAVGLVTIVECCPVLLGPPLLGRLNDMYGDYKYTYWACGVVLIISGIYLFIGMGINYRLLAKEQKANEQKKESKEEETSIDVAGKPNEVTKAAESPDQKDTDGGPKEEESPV
MCT1, sequence (P35613 140-385 partner): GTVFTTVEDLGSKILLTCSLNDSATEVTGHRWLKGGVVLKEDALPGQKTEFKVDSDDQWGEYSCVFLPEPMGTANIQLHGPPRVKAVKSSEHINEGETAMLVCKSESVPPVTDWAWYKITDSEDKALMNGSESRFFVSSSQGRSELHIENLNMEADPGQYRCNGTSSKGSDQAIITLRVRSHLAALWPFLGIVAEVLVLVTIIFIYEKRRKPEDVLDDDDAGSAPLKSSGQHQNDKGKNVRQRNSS

SMILES | IC50 (MCT1) [nM] | IC50 (MCT4) [nM]
CC(C)(OCc1cc(-c2cc3ccccc3s2)n(Cc2ccccc2Cl)n1)C(=O)O [Example 195] | 13000 | 5.3
CCOc1cc(OC)cc(-c2cc(COC(C)(C)C(=O)O)nn2Cc2ccccc2OCC)c1 [Example 200, 2-([5-(3-Ethoxy-5-methoxyphenyl)-1-[(2-ethoxyphenyl)methyl]-1H-pyrazol-3-yl]-methoxy)-2-methylpropanoic acid] | 17000 | 1.9
Cn1cc(-c2cc(COC(C)(C)C(=O)O)nn2Cc2ccccc2Cl)cn1 [Example 205, 2-([1-[(2-Chlorophenyl)methyl]-5-(1-methyl-1H-pyrazol-4-yl)-1H-pyrazol-3-yl]-methoxy)-2-methylpropanoic acid] | > 100000 | 890
CCOc1ccccc1Cn1nc(COC(C)(C)C(=O)O)cc1-c1ccc2cnn(C)c2c1 [Example 207, 2-([1-[(2-Ethoxyphenyl)methyl]-5-(1-methyl-1H-indazol-6-yl)-lH-pyrazol-3-yl]-methoxy)-2-methylpropanoic acid] | 3200 | 15
CCOc1cc(OCC)cc(-c2cc(COC(C)(C)C(=O)O)nn2Cc2ccccc2OCC)c1 [Example 208, 2-([5-(3,5-Diethoxyphenyl)-1-[(2-ethoxy-phenyl)methyl]-1H-pyrazol-3-yl]methoxy)-2-methylpropanoic acid] | 17000 | 7.5
Cn1ncc2cc(-c3cc(COC(C)(C)C(=O)O)nn3Cc3ccccc3Cl)ccc21 [Example 209, 2-([1-[(2-Chlorophenyl)methyl]-5-(1-methyl-1H-indazol-5-yl)-1H-pyrazol-3-yl]-methoxy)-2-methyl propanoic acid] | 95000 | 31

More lines, now with the values ahead:

IC50 (MCT1) [nM] | IC50 (MCT4) [nM] | SMILES
22000 | 18 | CC(C)c1ccccc1-n1nc(COC(C)(C)C(=O)O)cc1-c1cccc(OC2CC2)c1 [Example 189, 2-([5-(3-cyclopropoxyphenyl)-1-[2-(propan-2-yl)phenyl]-1H-pyrazol-3-yl]methoxy)-2-methylpropanoic acid]
31000 | 7.8 | CC(C)(OCc1cc(-c2cccc(OC3CC3)c2)n(-c2ccccc2C(F)(F)F)n1)C(=O)O [Example 190, 2-([5-(3-Cyclopropoxyphenyl)-1-[2-(trifluoromethyl)phenyl]-1H-pyrazol-3-yl]-methoxy)-2-methylpropanoic acid]
38000 | 18 | CCn1ncc2cccc(-n3nc(COC(C)(C)C(=O)O)cc3-c3cccc(OC4CC4)c3)c21 [Example 193, 2-([5-(3-Cyclopropoxyphenyl)-1-(1-ethyl-1H-indazol-7-yl)-1H-pyrazol-3-yl]-methoxy)-2-methylpropanoic acid]
> 100000 | 3500 | Cn1cnc2cccc(-n3nc(COC(C)(C)C(=O)O)cc3-c3cccc(OC4CC4)c3)c21 [Example 194, 2-([5-(3-Cyclopropoxyphenyl)-1-(1-methyl-1H-1,3-benzodiazol-7-yl)-1H-pyrazol-3-yl]-methoxy)-2-methylpropanoic acid]
34000 | 9.6 | CCOc1cccc(-c2cc(COC(C)(C)C(=O)O)nn2Cc2ccccc2OCC)c1 [Example 199, 2-([5-(3-Ethoxyphenyl)-1-[(2-ethoxy-phenyl)methyl]-1H-pyrazol-3-yl]methoxy)-2-methylpropanoic acid]
93000 | 185 | CC(C)(OCc1cc(-c2ccc3c(c2)OCCO3)n(Cc2ccccc2Cl)n1)C(=O)O [Example 203, 2-([1-[(2-Chlorophenyl)methyl]-5-(2,3-dihydro-1,4-benzodioxin-6-yl)-1H-pyrazol-3-yl]methoxy)-2-methylpropanoic acid]
> 100000 | 40 | CC(C)(OCc1cc(-c2ccc3c(c2)OCO3)n(Cc2ccccc2Cl)n1)C(=O)O [Example 204, [[5-(2H-1,3-Benzodioxol-5-yl)-1-[(2-chloro-phenyl)methyl]-1H-pyrazol-3-yl]methoxy)-2-methylpropanoic acid]
